Test results reported in patent US20190002436A1, “RESPIRATORY SYNCYTIAL VIRUS INHIBITORS” (MEDIVIR AB, priority 2015, published 2019).

What follows are molecules tested on RSV (Long) (assay: RSV cytopathic effect (CPE)-based viral replication assay). Settings: HEp-2 cells infected with RSV Long at MOI 0.015; 3 days at 37° C.; cell viability by CellTiter-Glo luminescence; read-out: EC50 (nm).
Assay type: cell-based, respiratory syncytial virus (RSV)
In short: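 HEp-2 cells, 2,500 per well in DMEM with 2% heat-inactivated FBS, treated with 10-point compound dilutions and infected with RSV Long at MOI 0.015. After 3 days at 37 °C, 5% CO2, viability read by CellTiter-Glo luminescence; EC50 derived from CPE data.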

EC50 | SMILES
80 nM | O=C1CC(c2c(Cn3c(=O)n(C4CC4)c4ccncc43)ncc3ccccc23)CN1 (centres unmarked) [Example 2020]
15 nM | O=C1CC(c2c(Cn3c(=O)n(C4CC4)c4ccncc43)ncc3ccccc23)CN1 (centres unmarked) [Example 2019]
50 nM | CS(=O)(=O)N1CCC2(CC1)C(=O)N(Cc1ncc3ccccc3c1C1CNC(=O)C1)c1cnccc12 (centres unmarked) [Example 2018]
4.5 nM | COC(=O)NC1CC2(C1)C(=O)N(Cc1ncc3ccccc3c1-c1ccc(C#N)nc1)c1ccccc12 (centres unmarked) [Example 84-2]

Same assay, conditions: human respiratory syncytial virus, HEp-2, 72 h, HEp-2 cells infected with RSV Long at MOI 0.015; 3 days at 37° C.; cell viability by CellTiter-Glo luminescence; read-out: EC50 (nm)

EC50 | SMILES
0.8 nM | CS(=O)(=O)N1CCC2(CC1)C(=O)N(Cc1ncc3ccccc3c1-c1cccnc1)c1cnccc12 [Example 136, 1-(methylsulfonyl)-1′-((4-(pyridin-3-yl)isoquinolin-3-yl)methyl)spiro[piperidine-4,3′-pyrrolo[2,3-c]pyridin]-2′(1′H)-one]
1.5 nM | COC(=O)N1CC2(C1)C(=O)N(Cc1ncc3ccccc3c1-c1ccc(N)nc1)c1ccccc12 [Example 104, methyl 1′-((4-(6-aminopyridin-3-yl)isoquinolin-3-yl)methyl)-2′-oxospiro[azetidine-3,3′-indoline]-1-carboxylate]
9.8 nM | NC1(C(=O)N2CC3(C2)C(=O)N(Cc2ncc4ccccc4c2-c2ccc(S(N)(=O)=O)nc2)c2ccccc23)CC1 [Example 124, 5-(3-((1-(1-Aminocyclopropanecarbonyl)-2′-oxospiro[azetidine-3,3′-indolin]-1′-yl)methyl)isoquinolin-4-yl)pyridine-2-sulfonamide]
1.6 nM | COC(=O)N1CC2(C1)C(=O)N(Cc1ncc3ccccc3c1-c1ccc(F)nc1)c1ccccc12 [Example 73]
8600 nM | NC1(c2ccc3c(CCCCO)c(Cn4c(=O)n(C5CC5)c5ccncc54)ncc3c2)COC1 [Example 46g, 3-((7-(3-Aminooxetan-3-yl)-4-(4-hydroxybutyl)isoquinolin-3-yl)methyl)-1-cyclopropyl-1H-imidazo[4,5-c]pyridin-2(3H)-one]
3 nM | N#Cc1ccc(-c2c(CN3C(=O)C4(CN(C(N)=O)C4)c4ccccc43)ncc3ccccc23)cn1 [Example 77]
1.4 nM | CNC1(C(=O)N2CCC3(CC2)C(=O)N(Cc2ncc4ccccc4c2-c2ccc(F)nc2)c2cnccc23)CC1 [Example 111c, 1′-((4-(6-fluoropyridin-3-yl)isoquinolin-3-yl)methyl)-1-(1-(methylamino)cyclopropanecarbonyl)spiro[piperidine-4,3′-pyrrolo[2,3-c]pyridin-]2′(1′H)-one]
160 nM | O=c1n(Cc2ncc3c(F)cccc3c2CCCCO)c2cnccc2n1C1CC1 [Example 29, 1-Cyclopropyl-3-((8-fluoro-4-(4-hydroxybutyl)isoquinolin-3-yl)methyl)-1H-imidazo[4,5-c]pyridin-2(3H)-one]
2500 nM | CN1CCN(Cc2ccc3c(CCCCO)c(Cn4c(=O)n(C5CC5)c5ccncc54)ncc3c2)CC1 [Example 43j, 1-Cyclopropyl-3-((4-(4-hydroxybutyl)-7-((4-methylpiperazin-1-yl)methyl)isoquinolin-3-yl)methyl)-1H-imidazo[4,5-c]pyridin-2(3H)-one]
1.6 nM | N#Cc1ccc(-c2c(CN3C(=O)C4(CN(C(=O)OCCO)C4)c4ccccc43)ncc3ccccc23)cn1 [Example 64, 2-Hydroxyethyl 1′-((4-(6-cyanopyridin-3-yl)isoquinolin-3-yl)methyl)-2′-oxospiro[azetidine-3,3′-indoline]-1-carboxylate]
4.8 nM | COC(=O)N1CC2(C1)C(=O)N(Cc1ncc3ccccc3c1-c1ccc(NS(C)(=O)=O)nc1)c1cnccc12 [Example 167d, methyl 1′-((4-(6-(methylsulfonamido)pyridin-3-yl)isoquinolin-3-yl)methyl)-2′-oxo-1′,2′-dihydrospiro[azetidine-3,3′-pyrrolo[2,3-c]pyridine]-1-carboxylate]
19 nM | O=c1n(Cc2ncc3ccccc3c2CCCCO)c2ccccc2n1CC(F)(F)F [Example 5c, 1-((4-(4-hydroxybutyl)isoquinolin-3-yl)methyl)-3-(2,2,2-trifluoroethyl)-1H-benzo[d]imidazol-2(3H)-one]
280 nM | N#Cc1ccc2c(CCCCO)c(Cn3c(=O)n(C4CC4)c4ccncc43)ncc2c1 [Example 25, 3-((1-cyclopropyl-2-oxo-1H-imidazo[4,5-c]pyridin-3(2H)-yl)methyl)-4-(4-hydroxybutyl)isoquinoline-7-carbonitrile]
3.6 nM | CC(C)(O)C(=O)N1CCC2(CC1)C(=O)N(Cc1ncc3ccccc3c1-c1cccnc1)c1cnccc12 [Example 138, 1-(2-hydroxy-2-methylpropanoyl)-1′-((4-(pyridin-3-yl)isoquinolin-3-yl)methyl)spiro[piperidine-4,3′-pyrrolo[2,3-c]pyridin]-2′(1′H)-one]
7.2 nM | O=C(N1CCOCC1)N1CC2(C1)C(=O)N(Cc1ncc3ccccc3c1-c1cccnc1)c1ccccc12 [Example 148b, 1-(morpholine-4-carbonyl)-1′-((4-(pyridin-3-yl)isoquinolin-3-yl)methyl)spiro[azetidine-3,3′-indolin]-2′-one]
0.82 nM | NCC(N1CC2(C1)C(=O)N(Cc1ncc3ccccc3c1-c1cccnc1)c1ccccc12)C(F)(F)F (centres unmarked) [Example 2037]
2.5 nM | CS(=O)(=O)N(c1ccc(-c2c(CN3C(=O)C4(CCN(C(=O)C5(C(F)(F)F)CC5)CC4)c4ccncc43)ncc3ccccc23)cn1)S(C)(=O)=O [Example 166d, N-(methylsulfonyl)-N-(5-(3-((2′-oxo-1-(1-(trifluoromethyl)cyclopropanecarbonyl)spiro[piperidine-4,3′-pyrrolo[2,3-c]pyridin]-1′(2′H)-yl)methyl)isoquinolin-4-yl)pyridin-2-yl)methanesulfonamide]
58 nM | COC(=O)N1CC2(CC(n3c(=O)n(Cc4ncc5ccccc5c4CCCCO)c4ccccc43)C2)C1 [Example 17, Methyl 6-(3-((4-(4-hydroxybutyl)isoquinolin-3-yl)methyl)-2-oxo-2,3-dihydro-1H-benzo[d]imidazol-1-yl)-2-azaspiro[3.3]heptane-2-carboxylate]
2.6 nM | CC1(n2c(=O)n(Cc3ncc4ccccc4c3CCCCO)c3cnccc32)CC1 [Example 52b, 3-((4-(4-hydroxybutyl)isoquinolin-3-yl)methyl)-1-(1-methylcyclopropyl)-1H-imidazo[4,5-c]pyridin-2(3H)-one]
19 nM | COC(=O)N1CCC(n2c(=O)n(Cc3ncc4ccccc4c3CCCCO)c3cccc(Cl)c32)CC1 [Example 16, Methyl 4-(7-chloro-3-((4-(4-hydroxybutyl)isoquinolin-3-yl)methyl)-2-oxo-2,3-dihydro-1H-benzo[d]imidazol-1-yl)piperidine-1-carboxylate]
6 nM | O=C(C1CCNCC1)N1CC2(C1)C(=O)N(Cc1ncc3ccccc3c1-c1cccnc1)c1ccccc12 [Example 149b, 1-(Piperidine-4-carbonyl)-1′-((4-(pyridin-3-yl)isoquinolin-3-yl)methyl)spiro[azetidine-3,3′-indolin]-2′-one]
120 nM | NC1(C(=O)N2CCC3(CC2)C(=O)N(Cc2ncc4ccccc4c2-c2cc[nH]c2)c2cnccc23)CC1 [Example 2031]
15 nM | NC(=O)c1ccc(-c2c(CN3C(=O)C4(CN(C(=O)C5(N)CC5)C4)c4ccccc43)ncc3ccccc23)cn1 [Example 2008]
3.4 nM | O=C(C1CCNCC1)N1CCC2(CC1)C(=O)N(Cc1ncc3ccccc3c1-c1cccnc1)c1cnccc12 [Example 140, 1-(piperidine-4-carbonyl)-1′-((4-(pyridin-3-yl)isoquinolin-3-yl)methyl)spiro[piperidine-4,3′-pyrrolo[2,3-c]pyridin]-2′(1′H)-one]
15 nM | CNC1(C(=O)N2CC3(C2)C(=O)N(Cc2ncc4ccccc4c2-c2ccc(C(N)=O)nc2)c2ccccc23)CC1 [Example 115c, 5-(3-((1-(1-(methylamino)cyclopropanecarbonyl)-2′-oxospiro[azetidine-3,3′-indolin]-1′-yl)methyl)isoquinolin-4-yl)picolinamide]
2.2 nM | COC(=O)N1CC2(C1)C(=O)N(Cc1ncc3ccccc3c1-c1ccc(F)nc1F)c1ccccc12 [Example 96, Methyl 1′-((4-(2,6-difluoropyridin-3-yl)isoquinolin-3-yl)methyl)-2′-oxospiro[azetidine-3,3′-indoline]-1-carboxylate]
3.4 nM | O=c1n(Cc2ncc3ccccc3c2CCCCF)c2cnccc2n1C1CC1 [Example 57, 1-Cyclopropyl-3-((4-(4-fluorobutyl)isoquinolin-3-yl)methyl)-1H-imidazo[4,5-c]pyridin-2(3H)-one]
4.6 nM | CS(=O)(=O)N1CC2(C1)C(=O)N(Cc1ncc3ccccc3c1CCCCO)c1ccccc12 [Example 42, 1′-((4-(4-Hydroxybutyl)isoquinolin-3-yl)methyl)-1-(methylsulfonyl)spiro[azetidine-3,3′-indolin]-2′-one]
42 nM | COCCN1CC2(C1)C(=O)N(Cc1ncc3ccccc3c1-c1ccc(F)nc1)c1ccccc12 [Example 85c, 1′-((4-(6-Fluoropyridin-3-yl)isoquinolin-3-yl)methyl)-1-(2-methoxyethyl)spiro[azetidine-3,3′-indolin]-2′-one]
2 nM | NC(=O)N1CCC2(CC1)C(=O)N(Cc1ncc3ccccc3c1-c1cccnc1)c1cnccc12 [Example 135b, 2′-oxo-1′-((4-(pyridin-3-yl)isoquinolin-3-yl)methyl)-1′,2′-dihydrospiro[piperidine-4,3′-pyrrolo[2,3-c]pyridine]-1-carboxamide]

Same assay, conditions: human respiratory syncytial virus, HEp-2, 72 h, read-out: EC50 (nm)

SMILES | EC50
COC(=O)N1CC2(C1)C(=O)N(Cc1ncc3ccccc3c1-c1ccc(C#N)c(F)c1)c1ccccc12 [Example 93, Methyl 1′-((4-(4-cyano-3-fluorophenyl)isoquinolin-3-yl)methyl)-2′-oxospiro[azetidine-3,3′-indoline]-1-carboxylate] | 4.4 nM
